Measurements taken from patent publication US9334289B2, “Cephem compound having catechol or pseudo-catechol structure” (SHIONOGI & CO., LTD., priority 2011, dated 2016).
Converted amounts (≈) assume the structure as drawn.

Assays:
Test in all cases: MIC, CLSI broth microdilution, Test Example 1
Type in all cases: cell-based
P. aeruginosa SR24 = conditions: Ceftazidime resistance strain, cation-adjusted Mueller Hinton broth containing human apo-transferrin, 5×10^5 cfu/mL; for MIC: Pseudomonas aeruginosa, SR24, read-out: Minimum Inhibitory Concentration (MIC) P. aeruginosa SR24
P. aeruginosa SR24837 = conditions: PER-1 ESBL producing strain, cation-adjusted Mueller Hinton broth containing human apo-transferrin, 5×10^5 cfu/mL; for MIC: Pseudomonas aeruginosa, SR24837, read-out: Minimum Inhibitory Concentration (MIC) P. aeruginosa SR24837
Procedure: (§1) Measurement of Minimum Inhibitory Concentration (MIC: μg/mL) was conducted according to CLSI (Clinical and Laboratory Standards Institute) method, and the amount of bacteria for inoculation was 5×10^5 cfu/mL, and cation-adjusted Mueller Hinton broth containing human apo-transferrin was used as a test medium, and the experiment was conducted using broth microdilution method. The bacteria used are listed below.

E. coli ATCCBAA-199 = conditions: SHV-3 ESBL producing strain, cation-adjusted Mueller Hinton broth containing human apo-transferrin, 5×10^5 cfu/mL; for MIC: Escherichia coli, ATCCBAA199, read-out: Minimum Inhibitory Concentration (MIC) E. coli ATCC BAA-199
Procedure: as §1

E. coli ATCCBAA-200 = conditions: SHV-4 ESBL producing strain, cation-adjusted Mueller Hinton broth containing human apo-transferrin, 5×10^5 cfu/mL; for MIC: Escherichia coli, ATCCBAA200, read-out: Minimum Inhibitory Concentration (MIC) E. coli ATCC BAA-200
Procedure: as §1

[1] = test system: K. pneumoniae ATCCBAA-1705; conditions: KPC-2 carbapenemase producing strain, cation-adjusted Mueller Hinton broth containing human apo-transferrin, 5×10^5 cfu/mL; for MIC: Klebsiella pneumoniae, ATCCBAA1705, read-out: Minimum Inhibitory Concentration (MIC) K. pneumoniae ATCCBAA-1705
Procedure: as §1

P. aeruginosa SR27060 = conditions: IMP-1 MBL producing strain (carbapenem resistance strain), cation-adjusted Mueller Hinton broth containing human apo-transferrin, 5×10^5 cfu/mL; for MIC: Pseudomonas aeruginosa, SR27060, read-out: Minimum Inhibitory Concentration (MIC) P. aeruginosa SR27060
Procedure: as §1

A. baumannii SR27323 = conditions: OXA-23, OXA-58 carbapenemase producing strain, cation-adjusted Mueller Hinton broth containing human apo-transferrin, 5×10^5 cfu/mL; for MIC: Acinetobacter baumannii, SR27323, read-out: Minimum Inhibitory Concentration (MIC) A. baumannii SR27323
Procedure: as §1

| SMILES | Minimum Inhibitory Concentration (MIC) P. aeruginosa SR24 (P. aeruginosa SR24) [µg/mL] | Minimum Inhibitory Concentration (MIC) P. aeruginosa SR24837 (P. aeruginosa SR24837) [µg/mL] | Minimum Inhibitory Concentration (MIC) E. coli ATCC BAA-199 (E. coli ATCCBAA-199) [µg/mL] | Minimum Inhibitory Concentration (MIC) E. coli ATCC BAA-200 (E. coli ATCCBAA-200) [µg/mL] | Minimum Inhibitory Concentration (MIC) K. pneumoniae ATCCBAA-1705 [1] | Minimum Inhibitory Concentration (MIC) P. aeruginosa SR27060 (P. aeruginosa SR27060) [µg/mL] | Minimum Inhibitory Concentration (MIC) A. baumannii SR27323 (A. baumannii SR27323) [µg/mL] | MIC (P. aeruginosa SR24) [µg/mL] | MIC (P. aeruginosa SR24837) [µg/mL] | MIC (E. coli ATCCBAA-199) [µg/mL] | MIC (E. coli ATCCBAA-200) [µg/mL] | MIC [1] [µg/mL] | MIC (P. aeruginosa SR27060) [µg/mL] | MIC (A. baumannii SR27323) [µg/mL] |
| --- | --- | --- | --- | --- | --- | --- | --- | --- | --- | --- | --- | --- | --- | --- |
| C[N+](C)(CCNC(=O)c1ccc(O)c(O)c1Cl)CC1=C(c2nnn[n-]2)N2C(=O)C(NC(=O)C(=NOC(CC(=O)[O-])C(=O)[O-])c3csc(N)n3)C2SC1.[Na+].[Na+] (stereo not shown) [Compound I-92] | 0.25 | 0.25 | 0.063 | 0.125 | ≦0.031 μg/ml | 2 | 0.5 |  |  |  |  |  |  |  |
| CC(C)(O/N=C(\C(=O)N[C@@H]1C(=O)N2C(c3nnn[n-]3)=C(C[N+]3(C)[C@@H]4CC[C@H]3C[C@@H](NC(=O)c3ccc(O)c(O)c3Cl)C4)CS[C@H]12)c1csc(N)n1)C(=O)[O-].[Na+] (stereo partly shown) [Compound I-2] |  |  |  |  |  |  |  | 0.25 | 0.25 | 0.5 | 1 | ≤ 0.031 | 1 | 1 |
| CC(C)(O/N=C(\C(=O)N[C@@H]1C(=O)N2C(c3nnn[n-]3)=C(C[N+]3(CCNC(=O)c4ccc(O)c(O)c4Cl)CCCC3)C[S+]([O-])[C@H]12)c1csc(N)n1)C(=O)[O-].[Na+] (stereo partly shown) [Compound I-7] |  |  |  |  |  |  |  | 2 | 1 | 0.25 | 0.5 | 0.063 | 4 | 16 |
| CC(C)(O/N=C(\C(=O)N[C@@H]1C(=O)N2C(c3nnn[nH]3)=C(C[N+]3(CCNC(=O)c4cc(O)c(O)c(F)c4)CCCC3)CS[C@H]12)c1csc(N)n1)C(=O)[O-] [Compound I-56] |  |  |  |  |  |  |  | ≤ 0.031 | 0.25 (≈ 0.329 µM) | 0.125 (≈ 0.165 µM) | 0.25 (≈ 0.329 µM) | ≤ 0.031 | 0.5 (≈ 0.658 µM) | 0.5 (≈ 0.658 µM) |
| CC(C)(O/N=C(\C(=O)N[C@@H]1C(=O)N2C(c3nnn[n-]3)=C(C[N+]34CCC(CNC(=O)c5cc(=O)c(O)cn5O)(CC3)CC4)CS[C@H]12)c1csc(N)n1)C(=O)[O-].[Na+] [Compound I-18] |  |  |  |  |  |  |  | 0.5 | 1 | 0.125 | 0.25 | ≤ 0.031 | 2 | 0.125 |
| CC(C)(O/N=C(\C(=O)N[C@@H]1C(=O)N2C(c3nn[n-]n3)=C(C[n+]3ccc(NCc4ccc(O)c(O)c4Cl)cc3)CS[C@H]12)c1csc(N)n1)C(=O)[O-].[Na+] [Compound I-49] |  |  |  |  |  |  |  | 0.063 | 0.25 | 0.25 | 0.5 | ≤ 0.031 | 1 | 1 |
| CC(C)(O/N=C(\C(=O)N[C@@H]1C(=O)N2C(c3nnn[n-]3)=C(C[n+]3ccc(-c4ccc(O)c(O)c4Cl)cc3)CS[C@H]12)c1csc(N)n1)C(=O)[O-].[Na+] [Compound I-79] |  |  |  |  |  |  |  | ≤ 0.031 | 0.063 | 0.5 | 1 | ≤ 0.031 | 0.25 | 0.125 |
| CC(C)(O/N=C(\C(=O)N[C@@H]1C(=O)N2C(C(=O)[O-])=C(C[N+]34CCC(CNC(=O)c5ccc(O)c(O)c5Cl)(CC3)CC4)CS[C@H]12)c1csc(N)n1)C(=O)[O-].[Na+] [Comparative Compound 1, reference compound] |  |  |  |  |  |  |  | 0.5 | > 32 | 2 | 4 | 0.125 | 4 | 1 |
| CC(C)(O/N=C(\C(=O)N[C@@H]1C(=O)N2C(c3nnn[n-]3)=C(C[N+]3(CCNC(=O)c4ccc(O)c(O)c4Cl)CCCC3)CS[C@H]12)c1nc(N)sc1Cl)C(=O)[O-].[Na+] [Compound I-88] |  |  |  |  |  |  |  | 0.063 | ≤ 0.031 | 0.063 | 0.125 | 0.063 | 0.5 | 0.5 |
| Cc1c(O)c(O)cc2cc[n+](CC3=C(c4nnn[n-]4)N4C(=O)[C@@H](NC(=O)/C(=N\OC(C)(C)C(=O)[O-])c5csc(N)n5)[C@H]4SC3)cc12.[Na+] [Compound I-22] |  |  |  |  |  |  |  | ≤ 0.031 | 0.25 | 0.063 | 0.125 | ≤ 0.031 | 0.25 | 0.125 |
